ChEMBL document CHEMBL1240316, “An oxidation-sensing mechanism is used by the global regulator MgrA in Staphylococcus aureus” (2006)
In brackets after ≈: the same amount, converted by molar mass. Activity calls are given as the source filed them. The calls are words filed in the database; no cut-off is given here.

Tests used:
[1] = system: Staphylococcus aureus; assay: Antimicrobial activity against Staphylococcus aureus expressing mgrA C12S mutant gene harboring plasmid Pyj335 assessed as visible growth at 0.45 ug/ml after 24 hrs in presence of 20 uM paraquat; type: functional, organism-based
[2] = system: Staphylococcus aureus; assay: Antimicrobial activity against Staphylococcus aureus expressing mgrA C12S mutant gene harboring plasmid Pyj335 assessed as visible growth at 0.75 ug/ml after 24 hrs in presence of 20 uM paraquat; type: functional, organism-based
[3] = system: Staphylococcus aureus; assay: Antimicrobial activity against Staphylococcus aureus expressing mgrAC12S mutant gene harboring plasmid Pyj335-His-mgrA C12S assessed as highest concentration at which growth was visible after 24 hrs in presence of 20 uM paraquat; type: functional
[4] = system: Staphylococcus aureus; assay: Antimicrobial activity against Staphylococcus aureus expressing mgrA C12S mutant gene harboring Pyj335-His-mgrA assessed as visible growth at 0.25 ug/ml after 24 hrs; type: functional, organism-based
[5] = system: Staphylococcus aureus; assay: Antimicrobial activity against Staphylococcus aureus assessed as visible growth at 0.45 ug/ml after 24 hrs in presence of 20 uM paraquat; type: functional, organism-based
[6] = system: Staphylococcus aureus; assay: Antimicrobial activity against Staphylococcus aureus expressing mgrAC12S mutant gene harboring plasmid Pyj335 assessed as visible growth at 0.55 ug/ml after 24 hrs; type: functional, organism-based
[7] = system: Staphylococcus aureus; assay: Antimicrobial activity against Staphylococcus aureus expressing mgrA C12S mutant gene assessed as visible growth at 0.45 ug/ml after 24 hrs; type: functional, organism-based
[8] = system: Staphylococcus aureus; assay: Antimicrobial activity against Staphylococcus aureus assessed as visible growth at 0.20 ug/ml after 24 hrs in presence of 25 uM paraquat; type: functional, organism-based
[9] = system: Staphylococcus aureus; assay: Antimicrobial activity against Staphylococcus aureus expressing mgrA C12S mutant gene harboring Pyj335-His-mgrA C12S assessed as highest concentration at which growth was visible after 24 hrs in presence of 20 uM paraquat; type: functional
[10] = system: Staphylococcus aureus; assay: Antimicrobial activity against Staphylococcus aureus expressing mgrA C12S mutant gene assessed as visible growth at 0.75 ug/ml after 24 hrs; type: functional, organism-based
[11] = system: Staphylococcus aureus; assay: Antimicrobial activity against Staphylococcus aureus; type: functional
[12] = system: Staphylococcus aureus; assay: Antimicrobial activity against Staphylococcus aureus expressing mgrA C12S mutant gene harboring pYJ335 assessed as highest concentration at which growth was visible after 24 hrs in presence of 20 uM paraquat; type: functional
[13] = system: Staphylococcus aureus; assay: Antimicrobial activity against Staphylococcus aureus assessed as visible growth at 0.35 ug/ml after 24 hrs; type: functional, organism-based
[14] = system: Staphylococcus aureus; assay: Antimicrobial activity against Staphylococcus aureus expressing mgrA C12S mutant gene assessed as visible growth at 0.35 ug/ml after 24 hrs; type: functional, organism-based
[15] = system: Staphylococcus aureus; assay: Antimicrobial activity against Staphylococcus aureus expressing mgrA C12S mutant gene harboring Pyj335-His-mgrAC12S assessed as visible growth at 0.20 ug/ml after 24 hrs in presence of 100 uM hydrogen peroxide; type: functional, organism-based
[16] = system: Staphylococcus aureus; assay: Antimicrobial activity against Staphylococcus aureus assessed as visible growth at 0.75 ug/ml after 24 hrs; type: functional, organism-based
[17] = system: Staphylococcus aureus; assay: Antimicrobial activity against Staphylococcus aureus assessed as highest concentration at which growth was visible after 24 hrs; type: functional
[18] = system: Staphylococcus aureus; assay: Antimicrobial activity against Staphylococcus aureus assessed as highest concentration at which growth was visible after 24 hrs in presence of 20 uM paraquat; type: functional
[19] = system: Staphylococcus aureus; assay: Antimicrobial activity against Staphylococcus aureus expressing mgrA C12S mutant gene harboring Pyj335-His-mgrA assessed as visible growth at 0.75 ug/ml after 24 hrs in presence of 20 uM paraquat; type: functional, organism-based
[20] = system: Staphylococcus aureus; assay: Antimicrobial activity against Staphylococcus aureus assessed as visible growth at 0.25 ug/ml after 24 hrs in presence of 20 uM paraquat; type: functional, organism-based
[21] = system: Staphylococcus aureus; assay: Antimicrobial activity against Staphylococcus aureus expressing mgrAC12S mutant gene assessed as highest concentration at which growth was visible after 24 hrs in presence of 20 uM paraquat; type: functional
[22] = system: Staphylococcus aureus; assay: Antimicrobial activity against Staphylococcus aureus expressing mgrA C12S mutant gene; type: functional
[23] = system: Staphylococcus aureus; assay: Antimicrobial activity against Staphylococcus aureus expressing mgrA C12S mutant gene assessed as visible growth at 0.55 ug/ml after 24 hrs; type: functional, organism-based
[24] = system: Staphylococcus aureus; assay: Antimicrobial activity against Staphylococcus aureus expressing mgrA C12S mutant gene harboring plasmid Pyj335 assessed as highest concentration at which growth was visible after 24 hrs; type: functional
[25] = system: Staphylococcus aureus; assay: Antimicrobial activity against Staphylococcus aureus expressing mgrA C12S mutant gene harboring pYJ335-His-mgrA C12S assessed as highest concentration at which growth was visible after 24 hrs; type: functional
[26] = system: Staphylococcus aureus; assay: Antimicrobial activity against Staphylococcus aureus expressing mgrAC12S mutant gene assessed as highest concentration at which growth was visible after 24 hrs; type: functional
[27] = system: Staphylococcus aureus; assay: Antimicrobial activity against Staphylococcus aureus assessed as visible growth at 0.55 ug/ml after 24 hrs; type: functional, organism-based
[28] = system: Staphylococcus aureus; assay: Antimicrobial activity against Staphylococcus aureus expressing mgrA C12S mutant gene harboring Pyj335-His-mgrA assessed as visible growth at 2.2 ug/ml after 24 hrs in presence of 20 uM paraquat; type: functional, organism-based
[29] = system: Staphylococcus aureus; assay: Antimicrobial activity against Staphylococcus aureus expressing mgrA C12S mutant gene harboring plasmid Pyj335-His-mgrA assessed as visible growth at 1.1 ug/ml after 24 hrs in presence of 100 uM hydrogen peroxide; type: functional, organism-based
[30] = system: Staphylococcus aureus; assay: Antimicrobial activity against Staphylococcus aureus expressing mgrA C12S mutant gene harboring Pyj335-His-mgrA C12S assessed as visible growth at 1.1 ug/ml after 24 hrs in presence of 100 uM hydrogen peroxide; type: functional, organism-based
[31] = system: Staphylococcus aureus; assay: Antimicrobial activity against Staphylococcus aureus expressing mgrA C12S mutant gene harboring Pyj335-His-mgrA assessed as visible growth at 1.1 ug/ml after 24 hrs in presence of 25 uM paraquat; type: functional, organism-based
[32] = system: Staphylococcus aureus; assay: Antimicrobial activity against Staphylococcus aureus expressing mgrA C12S mutant gene harboring Pyj335-His-mgrA assessed as visible growth at 0.6 ug/ml after 24 hrs; type: functional, organism-based
[33] = system: Staphylococcus aureus; assay: Antimicrobial activity against Staphylococcus aureus expressing mgrA C12S mutant gene harboring plasmid Pyj335 assessed as visible growth at 1.8 ug/ml after 24 hrs in presence of 20 uM paraquat; type: functional, organism-based
[34] = system: Staphylococcus aureus; assay: Antimicrobial activity against Staphylococcus aureus expressing mgrA C12S mutant gene harboring Pyj335-His-mgrA assessed as visible growth at 1.8 ug/ml after 24 hrs; type: functional, organism-based
[35] = system: Staphylococcus aureus; assay: Antimicrobial activity against Staphylococcus aureus assessed as visible growth at 1.8 ug/ml after 24 hrs in presence of 20 uM paraquat; type: functional, organism-based
[36] = system: Staphylococcus aureus; assay: Antimicrobial activity against Staphylococcus aureus expressing mgrA C12S mutant gene harboring Pyj335-His-mgrA assessed as visible growth at 0.6 ug/ml after 24 hrs in presence of 20 uM paraquat; type: functional, organism-based
[37] = system: Staphylococcus aureus; assay: Antimicrobial activity against Staphylococcus aureus assessed as visible growth at 1.1 ug/ml after 24 hrs; type: functional, organism-based
[38] = system: Staphylococcus aureus; assay: Antimicrobial activity against Staphylococcus aureus assessed as visible growth at 2.2 ug/ml after 24 hrs in presence of 20 uM paraquat; type: functional, organism-based
[39] = system: Staphylococcus aureus; assay: Antimicrobial activity against Staphylococcus aureus expressing mgrA C12S mutant gene harboring Pyj335-His-mgrA assessed as visible growth at 2.2 ug/ml after 24 hrs; type: functional, organism-based
[40] = system: Staphylococcus aureus; assay: Antimicrobial activity against Staphylococcus aureus expressing mgrA C12S mutant gene harboring plasmid Pyj335-His-mgrA assessed as visible growth at 1.8 ug/ml after 24 hrs in presence of 20 uM paraquat; type: functional, organism-based

With `O=C(O)c1cn(C2CC2)c2cc(N3CCNCC3)c(F)cc2c1=O` [CIPROFLOXACIN] the Activity [1] was “inactive”, the Activity [2] was “Active” and the Activity [3] was 0.55 µg/mL. The Activity [4] was “inactive”, the Activity [5] was “inactive” and the Activity [6] was “inactive”. For the same compound, the Activity [7] was “inactive”, the Activity [8] was “Active” and the Activity [9] was 0.35 µg/mL. The Activity [10] was “Active”, the MIC [11] was 0.35 µg/mL (≈ 1.06 µM) and the Activity [12] was 0.65 µg/mL. For the same compound, the Activity [13] was “Active”, the Activity [14] was “inactive” and the Activity [15] was “Active”. For the same compound, the Activity [16] was “Active”, the Activity [17] was 0.25 µg/mL and the Activity [18] was 0.45 µg/mL. The Activity [19] was “Active”, the Activity [20] was “inactive” and the Activity [21] was 0.65 µg/mL. For the same compound, the MIC [22] was 0.7 µg/mL (≈ 2.11 µM), the Activity [23] was “inactive” and the Activity [24] was 0.65 µg/mL. The Activity [25] was 0.35 µg/mL, the Activity [26] was 0.65 µg/mL and the Activity [27] was “Active”.

For `CN[C@H](CC(C)C)C(=O)N[C@H]1C(=O)N[C@@H](CC(N)=O)C(=O)N[C@H]2C(=O)N[C@H]3C(=O)N[C@H](C(=O)N[C@H](C(=O)O)c4cc(O)cc(O)c4-c4cc3ccc4O)[C@H](O)c3ccc(c(Cl)c3)Oc3cc2cc(c3O[C@@H]2O[C@H](CO)[C@@H](O)[C@H](O)[C@H]2O[C@H]2C[C@](C)(N)[C@H](O)[C@H](C)O2)Oc2ccc(cc2Cl)[C@H]1O` [VANCOMYCIN], the Activity [28] was “Active”, the Activity [3] was 1.8 µg/mL and the Activity [29] was “Active”. For the same compound, the Activity [9] was 1.4 µg/mL, the Activity [30] was “Active” and the MIC [11] was 1.2 µg/mL (≈ 0.828 µM). The Activity [31] was “Active”, the Activity [12] was 2.2 µg/mL and the Activity [32] was “inactive”. The Activity [33] was “inactive”, the Activity [34] was “Active” and the Activity [17] was 1 µg/mL. The Activity [35] was “Active”, the Activity [18] was 1.4 µg/mL and the Activity [36] was “inactive”. The Activity [21] was 2.2 µg/mL, the MIC [22] was 2.4 µg/mL (≈ 1.66 µM) and the Activity [37] was “Active”. The Activity [38] was “Active”, the Activity [24] was 2.2 µg/mL and the Activity [25] was 1.4 µg/mL. The Activity [26] was 2.2 µg/mL, the Activity [39] was “Active” and the Activity [40] was “inactive”.
